# Laboratory results taken from patent publication US8916607B2, “Use of piperphentonamine or salts thereof in manufacture of medicaments for treating brain diseases” (Guangzhou Municipal Zhongwei Biotechnology Limited Company, priority 2009, dated 2014).
# Marks after values point to notes of the source that are not given here.
# Key:
# [1] = test system: infective brain edema of rats (pertussis bacteria liquid); experiment: infective cerebral edema by pertussis bacteria liquid: brain water, sodium and potassium ion content; type: in vivo, SD rats; set-up: Na^+ / K^+: unit not given here; details: pretreatment 0.5 mg/kg iv daily, two days; 4 h after bacteria liquid
# [2] = test system: cultured cerebral neurons; experiment: NMDA induces neuron injury in primary cultured neurons; type: cell-based, rat; details: 12 h; for mortality: NMDA 50 mmol/L
# [3] = test system: human brain disease; experiment: research in treating human brain diseases (no details); type: in vivo
# [4] = test system: cerebral hemorrhage in rats induced by collagenase; experiment: cerebral hemorrhage (ICH) model induced by collagenase: neurology score; type: in vivo, Wistar rats
# Description: Animals are randomly divided into five groups: sham operation 24 h group; cerebral hemorrhage (Intracerebral Haemorrhage, ICH)+physiological saline group (model); ICH+piperphentonamine hydrochloride (JBTA, 2 mg/kg) group, called as high dose group (h); ICH+piperphentonamine hydrochloride (JBTA, 0.5 mg/kg) group, called as low dose group (1); ICH+nimodipine (Nim, 0.5 mg/kg) group. The last four groups are divided into 4 h, 8 h, 12 h, 24 h as four time subgroups respectively. Physiological saline solution, piperphentonamine hydrochloride and nimodipine are intravenously injected from rat tail before the ICH model is established for 30 minutes, once a day. Injecting slowly, the total amount of drug liquid is controlled in 1 ml/200 g body weight: physiological saline solution also being administered in 1 ml/200 g body weight. Each group has 7 Wistar rats.
# The specific steps are as following: after the experimental rats are anesthetized by injecting chloral hydrate (350 mg/kg) in intraperitoneal, and being supinely immobilized in a stereotaxic instrument, and make the rat anterior fontanelle and posterior fontanelle in the same plane according to localization method reported by BAO Xinmin, etc. Being locally disinfected by iodine, incising in the midmost of scalp, scissoring the periosteum, exposing the anterior fontanelle, drilling a 1 mm diameter hole with thickness close to duramater in 3 mm left to the midline by number five needle. Inserting needle along the hole by the micro syringe fixed on a stereotaxic, the depth of needle insertion is 5.8 mm (i.e., the caudate nucleus position), slowly injecting collagenase VI 0.5 U. Injection time is 3 min, keeping for 5 min after injection, then pull the needle out, suturing the skin, and putting the rat into cage and feed. Inserting the needle and not injecting drugs in sham operation group, the remaining operations is the same as the above.
# After animals wake up, scoring nerve function defect of each group immediately according to the grading classification standards of nerve defect reported by Bedersog (litter improved).
# Choosing the animals with the score of 3 and more into the experiment, the animals are bred in different cages, eat and drink normally. Temperature is controlled in 20 to 25° C., score in 4 h, 8 h, 12 h, 24 h after establishment of the model.
# Divide the animals randomly into five groups: sham operation (sham) 24 h group; ICH+normal saline group (model); ICH+piperphentonamine maleate (4 mg/kg) group, namely high dose group (h); ICH+piperphentonamine maleate (2 mg/kg) group, namely low dose group (1); ICH+nimodipine (0.5 mg/kg) group. The last four groups were divided into four time subgroup of 4 h, 8 h, 12 h and 24 h. Physiological solution, piperphentonamine maleate and nimodipine were injected intravenous from rat tail vein 30 minutes before the ICH model made, once a day. Inject slowly, the total amount of drug liquid was controlled in 1 ml/200 g body weight: normal saline was also administered in 1 ml/200 g body weight. Each group has seven Wistar rats.
# [5] = test system: cerebral hemorrhage in rats induced by collagenase; experiment: ICH model induced by collagenase: NO in brain tissue by nitrate reductase method; type: in vivo, Wistar rats
# Text: Rats in each group were anesthetized by chloral hydrate, decollated rapidly and the brain take were taken out. The brain tissue around the hole was cut and procured, weighed precisely, and made into a 10% tissue homogenate using a glass homogenizer in an ice bath environment with physiological saline as homogenized medium, the supernatant of which was taken to be determined the content of NO by nitrate reductase method.
# [6] = test system: cerebral hemorrhage in rats induced by collagenase; experiment: ICH model induced by collagenase: histopathological observation; type: in vivo, Wistar rats; details: large dose (2 mg/kg) pretreatment
# Description: Influence of piperphentonamine hydrochloride on pathological morphology of cerebral hemorrhage in rats was observed. Each group animals were selected randomly, anesthetized deeply by chloral hydrate at predetermined time point, decollated and the brain were taken out rapidly, then, the brain tissue slices with hematoma (about 5 mm) were cut, and put into 10% formaldehyde solution immediately, fixed for 24 h followed by dehydration by graded ethanol, transparentizing by xylene, immersing in paraffin, embedding, slicing (5 μm), HE staining and sealing. The pathological changes area and the pathological change of the adjacent brain tissue were observed by optical microscope.
# [7] = test system: cerebral edema of mice caused by closed cerebral trauma; experiment: closed cerebral trauma model of mice, brain water content; type: in vivo, Kunming mice; details: brain taken after 24 h
# Description: There were 10 mice in each group.
# The closed cerebral trauma model of mice being established after fasting for 16 hours, administering intravenously to each group, striping and taking the brain of mouse after 24 hours, weighing the wet weight, and drying at 70° C. for 24 hours, then weighing the dry weight, and calculating brainwater content; the brain water content which is higher than normal values indicates the cerebral edema.
# The grouping method, administer method and model preparation were referred to example 2.
# [8] = test system: cerebral ischemia/reperfusion injury in mice; experiment: focal cerebral ischemia reperfusion injury model in mice (suture method), TTC infarction area; type: in vivo; details: ischemia 2 h, reperfusion 24 h
# Description: Focal cerebral ischemia reperfusion injury model is made in mice by using suture method, being ischemia for 2 h, then reperfusing for 24 h, and it proves that piperphentonamine hydrochloride has protective effect on ischemia-reperfusion cerebral injury.
# Mouse is anesthetized by injecting 10% chloral hydrate (350 mg/kg) in intraperitoneal, being intravenously administered 1 mg/kg, 5 mg/kg piperphentonamine hydrochloride or 20 u/kg coenzyme A, (COA), making the cerebral artery ischemia like as the method of example 6. Pulling out nylon thread from the internal carotid artery after the operation in 2 hours, until the end of the nylon thread is at bifurcation of the common carotid artery. Reperfusing for 24 hours. Except for not inserting a thread, the rest of steps for the false operation group are same as the above-mentioned. After reperfusion for 24 h, decapitating and taking the brain of survived mice, rapidly putting in −20° C. freezer for 5 min, then removing, quickly cutting coronal slices of 2.0 mm thickness from forward to back on the operating table, putting the slices in phosphate buffer solution with 1% TTC immediately, incubating for 30 min in avoiding light at room temperature. Flip brain slices to make them touch staining solution uniformly every 10 minute, and scanning and observing the dyeing results.
# The local cerebral ischemia model of mice was established by using thread bolt method, to validate that piperphentonamine acetate has protective effect on experimental cerebral ischemia animal.
smiles,measurement,setting,value
"CN(CCC(=O)/C=C/c1ccc(O)cc1)CCc1ccc2c(c1)OCO2.Cl [piperphentonamine hydrochloride, Piperphentonamine hydrochloride]",K^+,[1],436.3 ± 43.9
same,Na^+,[1],181.1 ± 26.1
same,water content of brain (%),[1],69.8 ± 0.44^3) %
same,mortality,"[2]; drug 10 mmol/L, hydrochloride",38%
same,mortality,"[2]; drug 10 mmol/L, listed as JBTA2, hydrochloride",38%
same,mortality,"[2]; drug 100 mmol/L, hydrochloride",24%
same,mortality,"[2]; drug 100 mmol/L, listed as JBTA2, hydrochloride",24%
same,morphological change of culture neuron,[2]; drug 10,the degree of cell injury reduces significantly
same,treating human brain and other diseases,[3],obvious effect and clinical significance
same,neurological score,"[4]; 0.5 mg/kg iv 30 min before ICH, 4 h",4.5 ± 0.87
same,neurological score,"[4]; 0.5 mg/kg iv 30 min before ICH, 8 h",4.29 ± 1.02
same,neurological score,"[4]; 0.5 mg/kg iv 30 min before ICH, 12 h",3.65 ± 1.19
same,neurological score,"[4]; 0.5 mg/kg iv 30 min before ICH, 24 h",3.21 ± 1.61
same,neurological score,"[4]; 2 mg/kg iv 30 min before ICH, 4 h",4.07 ± 0.74
same,neurological score,"[4]; 2 mg/kg iv 30 min before ICH, 8 h",3.86 ± 1.19
same,neurological score,"[4]; 2 mg/kg iv 30 min before ICH, 12 h",2.36 ± 0.8*^Δ
same,neurological score,"[4]; 2 mg/kg iv 30 min before ICH, 24 h",1.71 ± 0.57**^Δ
same,NO,"[5]; 2 mg/kg, ICH rat brain tissue",1.65 ± 0.03^Δ μmol/g pro
same,NO content in brain tissue,"[5]; high and low dose groups (2, 0.5 mg/kg)",could decrease the NO content in brain tissue
same,pathological morphology of cerebral hemorrhage,[6],tissue edema and inflammatory cell infiltration after cerebral hemorrhage were reduce obviously
same,water content of cerebra (%),[7]; 1 mg/kg iv,82.05 ± 7.57 %
same,water content of cerebra (%),[7]; 2 mg/kg iv,78.67 ± 5.38 %
same,water content of cerebra (%),[7]; 4 mg/kg iv,75.43 ± 8.38 %
same,The percentage of infarction area occupied the entire coronal plane (%),[8]; 1 mg/kg iv,19.78 ± 2.61 %
same,The percentage of infarction area occupied the entire coronal plane (%),[8]; 5 mg/kg iv,16.55 ± 2.32 %
